Values quoted from earlier work in US20030219799A1, “Cancer-linked gene as target for chemotherapy” (priority 2002, published 2003).

Legend:
[1] = in vitro
cultured cell lines = details: versus cis-platin and doxorubicin
[2] = in vivo
[3] = tested on: subcutaneous COLO 205 human colon tumor xenografts; details: mice, subcutaneous COLO 205 xenografts, doses well below the maximum tolerated dose
[4] = tested on: cultured colon cancer cells

## COc1cc2cc(c1Cl)N(C)C(=O)C[C@H](OC(=O)[C@H](C)N(C)C(=O)CCS)[C@]1(C)O[C@H]1[C@H](C)[C@@H]1C[C@@](O)(NC(=O)O1)[C@H](OC)/C=C/C=C(\C)C2 [DM1]
[1]
  cytotoxicity relative to maytansine: up to 10 fold

## Cc1c[nH]c2c1[C@@]13C[C@@H]1CN(C(=O)c1cc4cc(NC(=O)c5cc6ccccc6o5)ccc4[nH]1)C3=CC2=O [Adozelesin]
Cultured cell lines
  toxicity to cultured cell lines relative to other DNA interacting agents: about 1,000 fold

## COc1cc2cc(c1Cl)N(C)C(=O)C[C@H](OC(=O)[C@H](C)N(C)C(C)=O)[C@]1(C)O[C@H]1[C@H](C)[C@@H]1C[C@@](O)(NC(=O)O1)[C@H](OC)/C=C/C=C(\C)C2 [Maytansine]
[2]
  value in human clinical trials: little value

B1: immunoconjugate of the maytansinoid cytotoxin DM1 and C242 antibody: DM1 linked to C242, a murine IgG1 with affinity for a mucin-like glycoprotein of human colorectal cancers (conjugate, chains of the INN, looked up)
VH: QVQLVQSGAEVKKPGETVKISCKASDYTFTYYGMNWVKQAPGQGLKWMGWIDTTTGEPTYAQKFQGRIAFSLETSASTAYLQIKSLKSEDTATYFCARRGPYNWYFDVWGQGTTVTVSS
VL: DIVMTQSPLSVPVTPGEPVSISCRSSKSLLHSNGNTYLYWFLQRPGQSPQLLIYRMSNLVSGVPDRFSGSGSGTAFTLRISRVEAEDVGVYYCLQHLEYPFTFGPGTKLELK
modifications: DM1 maytansinoid conjugate
[3]
  anti-tumor effects in vivo: anti-tumor effects
[4]
  cytotoxicity against cultured colon cancer cells: highly cytotoxic
